In patent US20210161788A1, “Anti-Blue Light Dermal Topical Composition and Applications Thereof” (Taiwan AC Scientific Inc., priority 2019, published 2021):

Legend:
[1] = tested on: Human Skin; experiment: Evaluation of the effect on human skin by the Janus facial analysis system; assay type: in vivo; settings: 3% solution applied on skin
Experimental: Evaluation method: A subject who has applied the 3% terephthalylidene dicamphor sulfonic acid solution on skin surfaces for seven straight days is tested by the Janus facial analysis system for status change of their skin.

[2] = Penetration rates of UV, blue light and visual light and shading rate of blue light, UV/blue-light detector; assay type: physicochemical; settings: for Penetration rate UV: 380-400 nm; for Penetration rate BL: 405-425 nm; for Penetration rate VL: 520-540 nm; for Shading rate of blue light: VL penetration minus BL penetration
Experimental: Solutions with different concentrations prepared by terephthalylidene dicamphor sulfonic acid are tested with a UV/blue-light detector (Actor-Mater Co., Ltd.) for penetration rates of ultraviolet (UV), blue light (BL) and visual light (VL). The shading rate of blue light is calculated by the formula as follows:
Shading rate of blue light (%)=penetration rate of visual light−penetration rate of blue light
where wavelength ranges of UV, blue light and visual light tested with a UV/blue-light detector (Actor-Mater Co., Ltd.) are 380-400 nm, 405-425 nm and 520-540 nm, respectively.
The 3% terephthalylidene dicamphor sulfonic acid solution (B) and the 3% rutoside solution (C) are prepared by ingredients as shown in formulas in Table 4. Referring to test modes in Embodiment 1 to Embodiment 3, the anti-blue light effects and the shading rates of blue light for solutions (B) and (C) are tested, respectively.
The synergistic effect of rutoside and terephthalylidene dicamphor sulfonic acid on anti-blue light is explored in this embodiment. Prepared by rutoside and terephthalylidene dicamphor sulfonic acid, the mixed solutions with different concentrations are tested for shading rates of blue light according to the test mode as shown in Embodiment 3.

CC1(C)C2CCC1(CS(=O)(=O)O)C(=O)C2=Cc1ccc(C=C2C(=O)C3(CS(=O)(=O)O)CCC2C3(C)C)cc1 (stereo in doubt) [terephthalylidene dicamphor sulfonic acid]
Reduction of the total average of fine wrinkles ([1]; after 7 straight days vs before use): 7%
Count of melanin pigmentations at the forehead ([1]; after 7 straight days, before use 42): 25
Count of melanin pigmentations at one side of the face ([1]; after 7 straight days, before use 49): 42
Count of melanin pigmentations at cheeks ([1]; after 7 straight days, before use 56): 44
Fine wrinkles under eyelids ([1]; after 7 straight days, before use 57): 54
Total average fine wrinkles ([1]; after 7 straight days, before use 82): 75
Crow's feet ([1]; after 7 straight days, before use 100): 88
Penetration rate UV ([2]; 0.5% (W/W) solution): 3.00 ± 0.00%
Penetration rate BL ([2]; 0.5% (W/W) solution): 87.33 ± 0.58%
Penetration rate VL ([2]; 0.5% (W/W) solution): 99.00 ± 0.00%
Shading rate of blue light ([2]; 0.5% (W/W) solution): 11.67 ± 0.58%
Penetration rate UV ([2]; 1% (W/W) solution): 1.67 ± 0.58%
Penetration rate BL ([2]; 1% (W/W) solution): 77.00 ± 1.00%
Penetration rate VL ([2]; 1% (W/W) solution): 98.67 ± 0.58%
Shading rate of blue light ([2]; 1% (W/W) solution): 21.67 ± 0.58%
Penetration rate UV ([2]; 3% (W/W) solution): 0.00 ± 0.00%
Penetration rate BL ([2]; 3% (W/W) solution): 50.00 ± 1.00%
Penetration rate VL ([2]; 3% (W/W) solution): 97.33 ± 0.58%
Shading rate of blue light ([2]; 3% (W/W) solution): 47.33 ± 0.58%
Penetration rate UV ([2]; 5% (W/W) solution): 0.00 ± 0.00%
Penetration rate BL ([2]; 5% (W/W) solution): 42.33 ± 0.58%
Penetration rate VL ([2]; 5% (W/W) solution): 97.33 ± 0.58%
Shading rate of blue light ([2]; 5% (W/W) solution): 55.00 ± 1.00%
Penetration rate UV ([2]; 10% (W/W) solution): 0.00 ± 0.00%
Penetration rate BL ([2]; 10% (W/W) solution): 26.33 ± 1.15%
Penetration rate VL ([2]; 10% (W/W) solution): 95.00 ± 1.00%
Shading rate of blue light ([2]; 10% (W/W) solution): 68.67 ± 0.58%
Penetration rate UV ([2]; 20% (W/W) solution): 0.00 ± 0.00%
Penetration rate BL ([2]; 20% (W/W) solution): 16.00 ± 1.00%
Penetration rate VL ([2]; 20% (W/W) solution): 93.00 ± 1.00%
Shading rate of blue light ([2]; 20% (W/W) solution): 77.00 ± 0.00%
Average shading rate of blue light ([2]; content of anti-blue light substances in a solution 1%): 22%
Average shading rate of blue light ([2]; content of anti-blue light substances in a solution 3%): 47%
